# Experimental data published in US6767991B1, “Hepatitis C inhibitor peptides” (priority 1997, dated 2004).
# *1 amine or outer side, *2 acyl side, *3 side chain or, on linkers, in order; H or OH if unused. Where a SMILES comes first, the peptide text is derived from it. [ ]: non-standard residue; d: D form. The star is where a group is joined. Acca(2-Et,1R,2R) = CC[C@@H]1C[C@]1(N)C(=O)O; CH2(1-naphthyl) = c1ccc2c(C*)cccc2c1; Glutaryl = O=C(CCCC(=O)[*:2])[*:1]; Hyp = O=C(O)[C@@H]1C[C@@H](O)CN1; Chg = N[C@H](C(=O)O)C1CCCCC1; Suc = O=C(CCC(=O)[*:2])[*:1]; Tle = CC(C)(C)[C@H](N)C(=O)O; Ac5c = NC1(C(=O)O)CCCC1; Nva = CCC[C@H](N)C(=O)O; X1 = c1ccc2cc(C*)ccc2c1; X4 = Brc1cc(Br)cc(C*)c1; Ac3c = NC1(C(=O)O)CC1; Boc = CC(C)(C)OC(=O)*; OBn = c1ccc(CO*)cc1; X2 = Brc1cccc(C*)c1; X3 = CC(=O)OCC(=O)*; Bn = c1ccc(C*)cc1
# Target: T1, HCV NS3 protease type 1b/NS4A cofactor peptide (Hepatitis C virus genotype 1b, UniProt P26663)
# T1 construct: recombinant HCV NS3 protease (amino acid 1027 to 1206) was cloned in the pET11d bacterial expression vector; made in house; host or cells: E. coli BL21(DE3)pLysS
# T1 sequence (P26663 1027-1206, other chains not shown): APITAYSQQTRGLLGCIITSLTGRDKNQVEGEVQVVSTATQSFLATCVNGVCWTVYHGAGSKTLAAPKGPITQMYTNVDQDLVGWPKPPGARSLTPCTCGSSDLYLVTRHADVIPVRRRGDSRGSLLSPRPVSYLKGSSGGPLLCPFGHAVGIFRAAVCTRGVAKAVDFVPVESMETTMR
# Experiment: Recombinant HCV NS3 protease/NS4A cofactor peptide radiometric assay
# Format: biochemical, HCV genotype 1b
# Conditions: Table 1, unmarked values: NS3 protease/NS4A cofactor peptide radiometric assay; read-out: IC50
# Protocol: Recombinant HCV NS3 Protease/NS4A Cofactor Peptide Radiometric Assay.
# The enzyme was stored at −80° C., thawed on ice and diluted just prior to use in the assay buffer containing the NS4A cofactor peptide.
# The substrate used for the NS3 protease/NS4A cofactor peptide radiometric assay, DDIVPC-SMSYTW [SEQ. ID NO. 2], is cleaved between the cysteine and the serine residues by the enzyme. The sequence DDIVPC-SMSYTW [SEQ. ID NO. 2] corresponds to the NS5A/NS5B natural cleavage site in which the cysteine residue in P2 has been substituted for a proline. The peptide substrate DDIVPC-SMSYTW [SEQ. ID NO. […] ID NO. […] [SEQ. ID NO. 5] (molar ratio enzyme: cofactor 1:100) in the absence or presence of inhibitors. The separation of substrate from products is performed by adding avidin-coated agarose beads to the assay mixture followed by filtration. […] ID NO. 4] product found in the filtrate allows for the calculation of the percentage of substrate conversion and of the percentage of inhibition.
# Tris and Tris-HCl (UltraPure) were obtained from Gibco-BRL. Glycerol (UltraPure), MES and BSA were purchased from Sigma. TCEP was obtained from Pierce, DMSO from Aldrich and NaOH from Anachemia.
# Assay buffer: 50 mM Tris HCl, pH 7.5, 30% (w/v) glycerol, 1 mg/mL BSA, 1 mM TCEP (TCEP added just prior to use from a 1 M stock solution in water).
# Substrate: […] [SEQ. ID NO.
# ID NO. 3] (˜1 nM final concentration).
# The assay was performed in a 96-well polypropylene plate from Costar. Each well contained:
# 20 μL substrate/tracer in assay buffer;
# 10 μL±inhibitor in 20% DMSO/assay buffer;
# 10 μL NS3 protease 1b/NS4 cofactor peptide (molar ratio 1:100).
# Blank (no inhibitor and no enzyme) and control (no inhibitor) were also prepared on the same assay plate.
# The enzymatic reaction was initiated by the addition of the enzyme/NS4A peptide solution and the assay mixture was incubated for 40 min at 23° C. under gentle agitation. Ten (10) μL of 0.5N NaOH were added and 10 μL 1 M MES, pH 5.8 were added to quench the enzymatic reaction.
# Twenty (20) μL of avidin-coated agarose beads (purchased from Pierce) were added in a Millipore MADP N65 filtration plate. The quenched assay mixture was transferred to the filtration plate, and incubated for 60 min at 23° C. under gentle agitation.
# The plates were filtered using a Millipore MultiScreen Vacuum Manifold Filtration apparatus, and 40 μL of the filtrate was transferred in an opaque 96-well plate containing 60 μL of scintillation fluid per well.
# The % inhibition was calculated with the following equation:
# 100-[(countsinh-countsblank)/(countsctl-countsblank)×100]
row,SMILES,IC50
1,CCC[C@H](NC(=O)[C@@H]1CCCN1C(=O)[C@@H](NC(=O)[C@@H](NC(=O)[C@H](CC(=O)O)NC(=O)CCC(=O)O)[C@@H](C)CC)C(C)C)C(=O)O [compound 130] (Suc-DIVP[Nva]-OH),123 µM
2,CCC[C@H](NC(=O)[C@@H]1CCCN1C(=O)[C@@H](NC(=O)[C@@H](NC(=O)[C@@H](CCC(=O)O)NC(=O)[C@H](CC(=O)O)NC(C)=O)[C@@H](C)CC)C(C)C)C(=O)O [compound 128] (Ac-D[dE]IVP[Nva]-OH),7.4 µM
3,CC[C@H](C)[C@H](NC(=O)[C@H](CC(=O)O)NC(=O)[C@H](CC(=O)O)NC(C)=O)C(=O)N[C@H](C(=O)N1CCC[C@H]1C(=O)NC1(C(=O)O)CCCC1)C(C)C [compound 125] (Ac-DDIVP[Ac5c]-OH),210 µM
4,CC[C@H](C)[C@H](NC(=O)[C@@H](NC(=O)[C@H](CC(=O)O)NC(C)=O)C(C)(C)C)C(=O)N[C@H](C(=O)N1CCC[C@H]1C(=O)N[C@@H](CS)C(=O)O)C(C)C [compound 108] (Ac-D[Tle]IVPC-OH),31 µM
5,CC(=O)N[C@@H](CC(=O)O)C(=O)N[C@@H](CC(=O)O)C(=O)N[C@H](C(=O)N[C@H](C(=O)N1CCC[C@H]1C(=O)N[C@@H](CS)C(=O)O)C(C)C)C(C)(C)C [compound 111] (Ac-DD[Tle]VPC-OH),79 µM
6,CC(=O)N[C@@H](CC(=O)O)C(=O)N[C@@H](CCC(=O)O)C(=O)N[C@H](C(=O)N[C@@H](CCC(=O)O)C(=O)N[C@@H](CCC(=O)O)C(=O)N[C@@H](CS)C(=O)O)C1CCCCC1 [compound 131] (Ac-DE[Chg]EEC-OH),24 µM
7,CC(=O)N[C@@H](CC(=O)O)C(=O)N[C@@H](CCC(=O)O)C(=O)N[C@H](C(=O)N[C@H](C(=O)N[C@@H](CCC(=O)OCc1ccccc1)C(=O)NC1(C(=O)O)CC1)C(C)C)C1CCCCC1 [compound 133] (Ac-DE[Chg]VE(OBn)[Ac3c]-OH),39 µM

# Same assay, conditions: Table 2, unmarked values: NS3 protease/NS4A cofactor peptide radiometric assay; read-out: IC50
row,SMILES,IC50
1,CCC[C@H](NC(=O)[C@@H]1C[C@@H](OCc2ccccc2)CN1C(=O)[C@@H](NC(=O)[C@@H](NC(=O)[C@@H](CCC(=O)O)NC(=O)[C@H](CC(=O)O)NC(C)=O)C1CCCCC1)C(C)C)C(=O)O [compound 211] (Ac-D[dE][Chg]V[Hyp](Bn)[Nva]-OH),0.12 µM
2,CC(=O)N[C@H](C(=O)N[C@H](C(=O)N1C[C@H](OCc2ccccc2)C[C@H]1C(=O)N[C@@H](CS)C(=O)O)C(C)C)C1CCCCC1 [compound 261] (Ac-[Chg]V[Hyp](Bn)C-OH),28 µM
3,CC(=O)N[C@H](C(=O)N[C@H](C(=O)N1C[C@H](OCc2cc(Br)cc(Br)c2)C[C@H]1C(=O)NC1(C(=O)O)CC1)C(C)C)C1CCCCC1 [compound 272] (Ac-[Chg]V[Hyp](X4)[Ac3c]-OH),27 µM
4,CC(=O)N[C@@H](CC(=O)O)C(=O)N[C@H](CCC(=O)O)C(=O)N[C@H](C(=O)N[C@H](C(=O)N1C[C@H](OCc2cccc3ccccc23)C[C@H]1C(=O)NC1(C(=O)O)CC1)C(C)C)C1CCCCC1 [compound 215] (Ac-D[dE][Chg]V[Hyp](CH2(1-naphthyl))[Ac3c]-OH),0.014 µM
5,CC(C)[C@H](NC(=O)[C@@H](NC(=O)CCCC(=O)O)C1CCCCC1)C(=O)N1C[C@H](OCc2cccc3ccccc23)C[C@H]1C(=O)NC1(C(=O)O)CC1 [compound 226] (Glutaryl-[Chg]V[Hyp](CH2(1-naphthyl))[Ac3c]-OH),0.76 µM
6,CC[C@H](C)[C@H](NC(=O)[C@H](NC(=O)[C@H](CC(=O)O)NC(C)=O)C(C)C)C(=O)N[C@H](C(=O)N1CCC[C@H]1C(=O)N[C@@H](CS)C(=O)O)C(C)C [compound 274] (Ac-D[dV]IVPC-OH),7.6 µM
7,CCC[C@H](NC(=O)[C@@H]1C[C@@H](OCc2ccccc2)CN1C(=O)[C@@H](NC(=O)[C@@H](NC(=O)[C@H](NC(=O)[C@H](CC(=O)O)NC(C)=O)C(C)C)[C@@H](C)CC)C(C)C)C(=O)O [compound 202] (Ac-D[dV]IV[Hyp](Bn)[Nva]-OH),0.93 µM
8,CC(=O)OCC(=O)N[C@H](C(=O)N[C@H](C(=O)N1C[C@H](OCc2cccc3ccccc23)C[C@H]1C(=O)NC1(C(=O)O)CC1)C1CCCCC1)C1CCCCC1 [compound 232] (X3-[Chg][Chg][Hyp](CH2(1-naphthyl))[Ac3c]-OH),1.4 µM
9,CC(=O)N[C@H](C(=O)N[C@H](C(=O)N1C[C@H](OCc2cccc(Br)c2)C[C@H]1C(=O)NC1(C(=O)O)CC1)C(C)C)C1CCCCC1 [compound 268] (Ac-[Chg]V[Hyp](X2)[Ac3c]-OH),24 µM
10,CC(=O)N[C@H](C(=O)N[C@H](C(=O)N1C[C@H](OCc2ccccc2)C[C@H]1C(=O)NC1(C(=O)O)CC1)C1CCCCC1)C1CCCCC1 [compound 234] (Ac-[Chg][Chg][Hyp](Bn)[Ac3c]-OH),41 µM
11,CCC[C@H](NC(=O)[C@@H]1C[C@@H](OCc2cccc3ccccc23)CN1C(=O)[C@@H](NC(=O)[C@@H](NC(=O)[C@H](CC(=O)O)NC(=O)[C@H](CC(=O)O)NC(C)=O)[C@@H](C)CC)C(C)C)C(=O)O [compound 207] (Ac-DDIV[Hyp](CH2(1-naphthyl))[Nva]-OH),0.39 µM
12,CC(C)(C)OC(=O)N[C@H](C(=O)N[C@H](C(=O)N1C[C@H](OCc2cccc3ccccc23)C[C@H]1C(=O)NC1(C(=O)O)CC1)C1CCCCC1)C1CCCCC1 [compound 235] (Boc-[Chg][Chg][Hyp](CH2(1-naphthyl))[Ac3c]-OH),12 µM
13,CC[C@H](C)[C@H](NC(C)=O)C(=O)N[C@H](C(=O)N1C[C@H](OCc2cccc3ccccc23)C[C@H]1C(=O)NC1(C(=O)O)CC1)C(C)C [compound 262] (Ac-IV[Hyp](CH2(1-naphthyl))[Ac3c]-OH),40 µM
14,CCC[C@H](NC(=O)[C@@H]1C[C@@H](OCc2ccc3ccccc3c2)CN1C(=O)[C@@H](NC(=O)[C@@H](NC(=O)[C@H](CC(=O)O)NC(=O)[C@H](CC(=O)O)NC(C)=O)[C@@H](C)CC)C(C)C)C(=O)O [compound 208] (Ac-DDIV[Hyp](X1)[Nva]-OH),0.71 µM
15,CC(=O)N[C@H](C(=O)N[C@H](C(=O)N1C[C@H](Oc2ccccc2Br)C[C@H]1C(=O)NC1(C(=O)O)CC1)C(C)C)C1CCCCC1 [compound 239],27 µM
16,CC(=O)N[C@H](C(=O)N[C@H](C(=O)N1C[C@H](OCc2cccc3ccccc23)C[C@H]1C(=O)NC1(C(=O)O)CC1)C1CCCCC1)C1CCCCC1 [compound 231] (Ac-[Chg][Chg][Hyp](CH2(1-naphthyl))[Ac3c]-OH),2.6 µM
17,CCC[C@H](NC(=O)[C@@H]1C[C@@H](OCc2cccc3ccccc23)CN1C(=O)[C@@H](NC(=O)[C@@H](NC(=O)CCC(=O)O)[C@@H](C)CC)C(C)C)C(=O)O [compound 221] (Suc-IV[Hyp](CH2(1-naphthyl))[Nva]-OH),22 µM
18,CCC[C@H](NC(=O)[C@@H]1C[C@@H](OCc2cccc3ccccc23)CN1C(=O)[C@@H](NC(=O)[C@@H](NC(=O)CCCC(=O)O)[C@@H](C)CC)C(C)C)C(=O)O [compound 222] (Glutaryl-IV[Hyp](CH2(1-naphthyl))[Nva]-OH),20 µM
19,CC(=O)N[C@H](C(=O)N[C@H](C(=O)N1C[C@H](Oc2ccc(I)cc2)C[C@H]1C(=O)NC1(C(=O)O)CC1)C(C)C)C1CCCCC1 [compound 249],9.7 µM
20,CCC[C@H](NC(=O)[C@@H]1C[C@@H](OCc2cccc3ccccc23)CN1C(=O)[C@@H](NC(=O)[C@@H](NC(=O)[C@H](CC(=O)O)NC(C)=O)[C@@H](C)CC)C(C)C)C(=O)O [compound 219] (Ac-DIV[Hyp](CH2(1-naphthyl))[Nva]-OH),2.3 µM

# Same assay, conditions: Table 5; first line of the cell; NS3 protease/NS4A cofactor peptide radiometric assay (Example 38); read-out: IC50
row,SMILES,IC50
1,"CC[C@@H]1C[C@]1(NC(=O)[C@@H]1C[C@@H](OCc2ccccc2)CN1C(=O)[C@@H](NC(=O)[C@@H](NC(=O)[C@@H](CCC(=O)O)NC(=O)[C@H](CC(=O)O)NC(C)=O)[C@@H](C)CC)C(C)C)C(=O)O [compound 517] (Ac-D[dE]IV[Hyp](Bn)[Acca(2-Et,1R,2R)]-OH)",0.075 µM

# Same assay, conditions: text b180, values of Table 5; 1R,2R versus 1S,2S isomer at P1; read-out: IC50
row,SMILES,IC50
1,CC[C@H]1C[C@@]1(NC(=O)[C@@H]1C[C@@H](OCc2cccc3ccccc23)CN1C(=O)[C@@H](NC(=O)[C@@H](NC(C)=O)C1CCCCC1)C(C)C)C(=O)O [compound 514],27.5 µM
